Calls of active or inactive are those of the source. The rule behind the calls is not given here.
Experiments:
[1] = biological target: T1, Keap1/Nrf2 (Homo sapiens) (UniProt Q16236+Q14145); test: Inhibition of Nrf2:Keap1 interaction (unknown origin) assessed as induction of negative TdeltaS values by MR121 dye-labeled Nrf2-derived peptide based tracer displacement assay; format: protein assay
[2] = biological target: T1, Keap1/Nrf2 (Homo sapiens); test: Inhibition of Nrf2:Keap1 interaction (unknown origin) assessed as thermodynamic enthalpy changes by MR121 dye-labeled Nrf2-derived peptide based tracer displacement assay; format: protein assay

T1 sequence (Q14145 whole entry, looked up): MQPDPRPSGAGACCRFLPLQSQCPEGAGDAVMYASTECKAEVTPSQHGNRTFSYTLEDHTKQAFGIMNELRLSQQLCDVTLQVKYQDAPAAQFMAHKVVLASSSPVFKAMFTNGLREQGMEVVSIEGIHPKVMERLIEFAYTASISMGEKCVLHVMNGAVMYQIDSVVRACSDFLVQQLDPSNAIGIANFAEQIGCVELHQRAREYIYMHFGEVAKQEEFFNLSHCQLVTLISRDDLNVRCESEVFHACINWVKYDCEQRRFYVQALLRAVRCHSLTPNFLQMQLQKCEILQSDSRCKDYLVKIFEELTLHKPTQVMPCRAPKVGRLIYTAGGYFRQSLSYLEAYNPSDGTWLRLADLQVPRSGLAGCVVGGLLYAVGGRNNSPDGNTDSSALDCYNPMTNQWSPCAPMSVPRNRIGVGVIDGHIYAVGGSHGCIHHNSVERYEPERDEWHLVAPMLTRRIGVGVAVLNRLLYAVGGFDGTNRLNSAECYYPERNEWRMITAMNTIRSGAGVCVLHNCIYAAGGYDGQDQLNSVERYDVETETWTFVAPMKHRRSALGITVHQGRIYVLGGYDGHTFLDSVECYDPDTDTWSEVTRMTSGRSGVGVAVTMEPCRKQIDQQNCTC
T1 sequence (Q16236 whole entry, looked up): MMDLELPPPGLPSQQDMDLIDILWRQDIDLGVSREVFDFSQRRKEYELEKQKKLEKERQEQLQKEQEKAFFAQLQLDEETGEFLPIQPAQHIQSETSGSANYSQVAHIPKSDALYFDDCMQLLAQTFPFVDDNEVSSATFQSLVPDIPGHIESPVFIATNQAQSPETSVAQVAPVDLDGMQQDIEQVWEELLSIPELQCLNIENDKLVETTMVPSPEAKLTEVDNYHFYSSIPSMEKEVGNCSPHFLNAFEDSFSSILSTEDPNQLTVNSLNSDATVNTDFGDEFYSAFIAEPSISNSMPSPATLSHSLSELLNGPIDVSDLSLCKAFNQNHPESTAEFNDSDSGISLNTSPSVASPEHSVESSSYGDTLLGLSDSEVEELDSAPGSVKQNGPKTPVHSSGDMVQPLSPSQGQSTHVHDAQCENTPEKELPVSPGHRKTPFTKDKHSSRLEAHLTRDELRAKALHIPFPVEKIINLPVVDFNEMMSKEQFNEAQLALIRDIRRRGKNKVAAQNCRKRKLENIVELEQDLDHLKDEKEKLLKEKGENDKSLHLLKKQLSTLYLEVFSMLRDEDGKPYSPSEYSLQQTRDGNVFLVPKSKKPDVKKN

Activity [1] | deltaG [2] [kcal/mol] | Structure (SMILES)
Active | -5.93 | Cc1ccc(S(=O)(=O)C2CN=C(SCC(=O)Nc3ccccc3C(F)(F)F)NC2=O)c(C)c1 (centres undefined)
Active | -7.84 | COc1ccc(S(=O)(=O)Nc2ccc(NS(=O)(=O)c3ccc(OC)cc3)c3ccccc23)cc1
